Legend:
[1] = tested on: wild-type Plk4-GFP NIH/3T3 cells; assay: Centriole overduplication assay, NIH/3T3 overexpressing wild-type Plk4-GFP; format: cell-based, mouse
Experimental: For generation of Plk4-GFP inducible NIH/3T3 cells, a mouse Plk4 cDNA C-terminally fused to eGFP was cloned into the lentiviral vector pLVX-TRE3G (Clontech). The G95L point mutation was generated by Quikchange mutagenesis (Agilent Technologies). Plasmids were transfected into HEK-293T cells using the Lenti-X HTX packaging system (Clontech), following manufacturer's instructions. 48 hours after transfection, virus-containing culture supernatant was harvested and added to the growth medium of Tet-On 3G NIH/3T3 cells (Clontech)+8 μg/ml polybrene (EMD Millipore).
Centriole overduplication assay. Tet-On 3G NIH/3T3 cells (Clontech) stably transduced with GFP, Plk4-GFP or Plk4(G95L)-GFP were seeded onto coverslips in a 12-well plate at 30,000 cells/well. Transgene expression was induced with 1 μg/ml doxycycline. […] Treated cells were incubated for 40 hours, and then washed with PBS and fixed in 100% methanol (−20° C., 5 minutes). Fixed samples were stained for γ-tubulin and Cep192, and mounted onto slides. Image acquisition and deconvolution were performed on the DeltaVision system equipped with a 100×1.3 NA U-PlanApo objective. Subsequent image processing was performed in ImageJ.

RPE1 cells = assay: Passaging assay and flow cytometry, RPE1; format: cell-based, human
Experimental: Passaging assays. Cells were seeded into 10 cm tissue culture plates at 150,000 (HeLa, NIH/3T3 and RPE1) or 200,000 cells/plate (primary fibroblasts). Compounds were added at the indicated concentrations. At 4-day intervals, cells were harvested, counted using a TC10 cell counter, and re-seeded into new plates at the densities above. Results are from 2 independent experiments.
Flow cytometry. Cells were seeded into 15 cm tissue culture plates such that each plate was 50-80% confluent at the time of harvesting. Cells were de-adhered by trypsinization and pelleted in 15 ml tubes by centrifugation. Each pellet was resuspended in 0.3 mL PBS, and 0.7 mL ice-cold 100% ethanol was added to the tube while gently vortexing. Fixed cells were stored at 4° C. for up to 2 weeks. For DNA content analysis, fixed cells were pelleted, washed twice with PBS, and resuspended in 0.5 mL PBS+2% BSA and Alexa488-conjugated anti-p-H3(Ser10) antibody. Samples were incubated for 1 hour at 4° C., then washed twice with PBS+2% BSA. Pellets were resuspended in 1 mL PBS+2% BSA, 10 μg/ml propidium iodide (Sigma-Aldrich), 500 µg/ml RNAse A (Thermo Scientific). Samples were incubated at 37° C. for 30 minutes, then transferred to 12×75 mm tubes for analysis. Data were acquired using FACSDiva software on a LSR II flow cytometer (BD Biosciences). 50,000 cells were analyzed per condition. Cell cycle fitting was performed using ModFit LT (Verity Software House).

panel of 19 cell lines = assay: Proliferation after centrosome depletion, panel of cell lines; format: cell-based; details: panel of 19 cell lines (Table 6)
Experimental: Proliferation assays. For each condition, cells were seeded in triplicate into 6-well plates at 50,000 cells/well. Compounds were added at the indicated concentrations. At 24-hour intervals, 3 wells were harvested per condition. Cell counting was performed using a TC10 automated cell counter (Bio-Rad). Results are from 3 independent experiments.

RET = molecular target: T1, RET (Homo sapiens, UniProt P07949); assay: Radiometric kinase assay, off-target RET; format: biochemical; details: off-target from DiscoveRx kinome profiling
T1 construct: Reaction Biology (Malvern, Pa.), contract assay
T1 sequence (P07949 29-1114): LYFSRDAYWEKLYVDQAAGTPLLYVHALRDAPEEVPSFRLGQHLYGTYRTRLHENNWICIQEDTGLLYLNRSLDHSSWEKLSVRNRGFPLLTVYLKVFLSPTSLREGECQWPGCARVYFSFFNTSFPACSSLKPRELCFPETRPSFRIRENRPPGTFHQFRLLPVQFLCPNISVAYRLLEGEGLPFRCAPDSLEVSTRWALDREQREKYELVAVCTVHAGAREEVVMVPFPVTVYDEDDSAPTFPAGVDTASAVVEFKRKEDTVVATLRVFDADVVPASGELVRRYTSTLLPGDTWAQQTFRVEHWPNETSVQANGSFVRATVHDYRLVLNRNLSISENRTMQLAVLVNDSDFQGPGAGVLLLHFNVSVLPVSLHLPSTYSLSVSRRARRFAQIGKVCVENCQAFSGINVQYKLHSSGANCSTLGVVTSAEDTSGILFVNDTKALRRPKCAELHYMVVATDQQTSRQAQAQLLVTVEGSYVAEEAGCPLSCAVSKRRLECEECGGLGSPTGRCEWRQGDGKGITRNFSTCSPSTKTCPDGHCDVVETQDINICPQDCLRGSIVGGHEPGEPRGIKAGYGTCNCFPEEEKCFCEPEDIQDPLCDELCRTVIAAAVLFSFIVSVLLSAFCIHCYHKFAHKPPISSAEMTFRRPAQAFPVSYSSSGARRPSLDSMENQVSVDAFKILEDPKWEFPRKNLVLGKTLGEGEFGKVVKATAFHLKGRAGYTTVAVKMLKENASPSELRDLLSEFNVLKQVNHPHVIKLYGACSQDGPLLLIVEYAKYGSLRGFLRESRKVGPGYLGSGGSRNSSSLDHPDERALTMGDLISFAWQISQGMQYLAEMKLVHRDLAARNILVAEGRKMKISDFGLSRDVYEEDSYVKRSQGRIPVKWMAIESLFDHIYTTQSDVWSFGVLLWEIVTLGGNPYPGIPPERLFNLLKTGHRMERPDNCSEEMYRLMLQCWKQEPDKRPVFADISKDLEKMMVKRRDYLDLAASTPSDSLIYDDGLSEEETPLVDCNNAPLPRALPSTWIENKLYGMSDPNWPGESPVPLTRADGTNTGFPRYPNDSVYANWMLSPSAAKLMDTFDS
Experimental: Aurora B and other radiometric kinase assays were performed by Reaction Biology (Malvern, Pa.). Kinome profiling of centrinone and centrinone-B was performed by DiscoveRx (San Diego, Calif.).

HeLa cells = assay: Quantification of centrosome numbers from fixed samples, HeLa; format: cell-based, human; details: for foci of centriolar and pericentriolar material markers: centrinone treatment
Experimental: Quantification of centrosome numbers from fixed samples. Cells were seeded onto poly-D-lysine-coated coverslips (Neuvitro) in 12-well plates at least 8 hours before fixation. At the required timepoints for each experiment, cells were washed once with PBS and fixed in 100% methanol (−20° C., 5 minutes). Fixed cells were washed with PBS, blocked with PBS+4% BSA+0.1% Triton X-100, and stained with primary antibodies against γ-tubulin and Cep192, which localize to the pericentriolar material and proximal to the outer centriole wall, respectively (47, 48). Alexa488-labeled anti-mouse secondary antibody (against anti-γ-tubulin) and Alexa647-labeled anti-rabbit secondary antibody (against anti-Cep192) were both used at 1.5 jag/mL. Samples were mounted onto slides with Prolong Gold antifade reagent (Life Technologies). Images of fixed interphase cells were acquired on a Nikon Eclipse E800 with a 60×1.4 NA PlanApo objective and ORCA-ER camera (Hamamatsu) using Metamorph software (Molecular Devices). Quantification of foci was performed manually. A focus was defined as a bona-fide centrosome if it was positive for both γ-tubulin and Cep192 (true for >95% of foci).

NIH/3T3 cells = assay: Microtubule regrowth assay, NIH/3T3; format: cell-based, mouse; details: NIH/3T3, 5 minutes after washout
Experimental: Microtubule regrowth assay. […] Cells were seeded onto coverslips in 12-well plates and treated with 16 μM nocodazole for 4 hours to depolymerize microtubules. Wells were washed 6 times with PBS to remove the nocodazole, and fresh, pre-warmed medium was added to each well. After 5 minutes of recovery, cells were fixed with 100% methanol (−20° C., 5 minutes) and stained with antibodies against γ-tubulin and α-tubulin. Coverslips were mounted onto slides and imaged on a DeltaVision microscope (Applied Precision) with a 60×1.42 NA PlanApo objective and CoolSnap camera (Photometrics). Image deconvolution was performed in softWoRx (Applied Precision) and subsequent processing was performed in ImageJ (NIH).

## COc1c(Nc2cc(C)[nH]n2)nc(Sc2ccc(S(=O)(=O)Cc3cccc([N+](=O)[O-])c3F)cc2F)nc1N1CCOCC1 [Centrinone, 2-((2-fluoro-4-((2-fluoro-3-nitrobenzyl)sulfonyl)phenyl)thio)-5-methoxy-N-(5-methyl-1H-pyrazol-3-yl)-6-morpholinopyrimidin-4-amine]
[1]
  centriole amplification: blocked centriole amplification
RPE1 cells; RPE1, 12-day passaging assay and flow cytometry
  cell cycle after centrosome depletion: cell cycle arrest in G1
RPE1 cells; RPE1, addition Day 0, washout Day 8
  proliferation after washout: did not
Panel of 19 cell lines
  proliferation after treatment: continued to proliferate
RET
  Ki: 13.9 nM
HeLa cells; HeLa (also BT549, N1E-115-1)
  centrosome number directly after washout from long-term treated cells: initial wave of centrosome overduplication
HeLa cells; HeLa, 10 days following washout
  centrosome numbers after washout: all cells exhibited normal centrosome numbers
HeLa cells; HeLa
  foci of centriolar and pericentriolar material markers: loss of all markers from cells
HeLa cells; HeLa, listed as centrinone
  foci of centriolar and pericentriolar material markers: most cells lacked centrioles/centrosomes
NIH/3T3 cells
  microtubule organization after nocodazole washout: short microtubules form throughout the cytoplasm

Reference: US10752612B2, “PLK4 inhibitors” (LUDWIG INSTITUTE FOR CANCER RESEARCH LTD, priority 2015, dated 2020)
